Laboratory results published in PubChem BioAssay AID179 (DTP/NCI, 2004).
The source made the active and inactive calls.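 The calls were made as follows: active = compounds giving half or more protection of infected cells from virus-caused growth loss, again on retest; inactive = the rest.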 Where a SMILES comes first, the peptide text is derived from it.

System: CEM cells HIV-1 protection, formazan growth assay
Experiment: NCI AIDS Antiviral Assay
Conditions: for IC50: measured here: growth of uninfected CEM cells
Procedure, shortened: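 Soluble formazan readout of cell growth; CEM cells ± HIV-1; 5 drug concs. ≥50% protection → retest; ≥50% again = moderately active; reproducible 100% = confirmed active.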

SMILES	EC50 [µM]	IC50 [µM]	outcome
CN(C)CCn1c(=O)c2ccc(NCCNCCO)c3c(=O)c4cc(O)ccc4n(c1=O)c23	> 2	0.407	–
CCc1cccc(CC)c1NC(=O)C(=O)Cc1nc2ccccc2o1	> 537	> 537	–
O=C(O)C(=Cc1ccc(-c2ccc([N+](=O)[O-])cc2)o1)C(=O)O	> 200	> 200	–
COc1ccc(CC#C/C=C/C(=O)NCC(C)C)cc1	> 95.5	14.1	–
COc1ccc(-c2nnc(-c3nsc4ccccc34)o2)cc1	> 17	> 17	–
CC(C)(CCl)NC(=O)c1cccc(C(=O)NC(C)(C)CCl)n1	> 28.8	> 28.8	–
COc1cccc(/C=C2\C(=O)N(C(=O)Cc3ccccc3)N=C2C)c1	> 15.5	> 15.5	–
CN(C)c1ccc(C=NC23CC4CC(CC(C4)C2)C3)cc1	> 63.1	> 63.1	–
Cc1ccc(C(=O)OC[C@H]2CC[C@@H](n3cc(N(C)C4CCCCC4)c(=O)[nH]c3=O)O2)cc1	> 200	53.7	–
O=C1NC(N2CCCC(CO)C2)=N/C1=C\c1ccc(O)cc1 (stereo unspecified)	> 200	115	–
CCCCCCCC(=O)N1C2CC3CCC2(CS1(=O)=O)C3(C)C (stereo unspecified)	> 200	19.1	–
CC(=O)NCCCCN(CCCNC(C)=O)C(=O)CNS(=O)(=O)c1cccc2c(N(C)C)cccc12	> 200	> 200	–
N=C(N)n1[nH]c2c(c1=O)CCCC2	> 200	> 200	–
CNC(=O)NCCN1N=C(C)/C(=C\c2ccccc2)CC1=O	–	–	inactive
COC(=O)/C=C\C(C#N)(C#N)N=Cc1cccs1	> 2	0.389	–
C=C1NC(=O)C(CC(C(=O)C(=O)Nc2c(C)cccc2C(C)(C)C)C(=O)c2ccc3ccccc3c2)C(=O)N1 (stereo unspecified)	> 178	> 178	–
Cc1c(CN2CCCC2)c(O)c2c(=O)c3c(O)c(CN4CCCC4)c(O)c4c5c(O)c(CN6CCCC6)c(O)c6c(=O)c7c(O)c(CN8CCCC8)c(C)c8c1c2c(c34)c(c78)c65	> 17.8	> 17.8	–
O=S(=O)(CSc1ccccc1)c1ccccc1	> 490	288	–
CCCCCN(CCCCC)/N=C/c1c2c(O)c3c(O)c(C)c4c(c3c1O)C(=O)C(C)(O/C=C/C(OC)C(C)C(OC(C)=O)C(C)C(O)C(C)C(O)C(C)/C=C/C=C(C)C(=O)N2)O4 (stereo unspecified)	> 200	8.32	–
CCCCN1C(=O)[C@](O)(NC(C)=O)[C@H]1COC(C)(C)C	> 43.7	> 43.7	–
O=C(O)c1nc2sc(C(=O)O)nc2s1	–	–	inactive

SMILES	EC50 [µM]	IC50 [µM]	outcome
NC(=O)N/N=C(\CC1OC(=O)c2ccccc21)c1ccc([N+](=O)[O-])cc1 (stereo unspecified)	–	–	inactive
Cc1csc([C@H]2CCC3[C@@H]4CC=C5C[C@@H](O)CC[C@]5(C)C4CC[C@@]32C)n1 (stereo partly specified)	> 67.6	> 67.6	–
CC(NC(=O)CNC(=O)C(N)CO)C(=O)NC(CCC(N)=O)C(=O)NC(CCCCN)C(=O)N1CCCC1C(=O)NC(CCC(=O)O)C(=O)NC(CCC(=O)O)C(=O)NC(CCC(=O)O)C(=O)NC(CO)C(=O)NC(CO)C(=O)NC(CC(N)=O)C(=O)NC(C)C(=O)NC(Cc1cnc[nH]1)C(=O)NC(CO)C(=O)O (stereo unspecified) (H-SGAQKPEEESSNAHS-OH; configuration not given here)	> 100	> 100	–
C=CCN(N=O)C(=O)NCCCCC(NC(C)=O)C(=O)NCc1ccccc1 (stereo unspecified)	–	–	inactive
CC1=C(C(=O)Nc2ccc(Cl)c(C(=O)OC(C)C)c2)SCCO1	0.398	74.1	–
COC(=O)C1=C2Nc3ccccc3C[C@@]23CCN2CCC[C@@](C(C)OC(=O)C=C(C)C)(C1)C23 (stereo partly specified)	> 200	23.4	–
NNC(=S)N/N=C(/C(=O)Nc1ccc([N+](=O)[O-])cc1)c1nc2ccc([N+](=O)[O-])cc2[nH]c1=O	> 145	> 145	–
COC(=O)C(C(=O)C(=O)Nc1cccc([N+](=O)[O-])c1)c1nc2ccc([N+](=O)[O-])cc2[nH]c1=O (stereo unspecified)	> 550	309	–
NC(Cc1ccc(CP(=O)(O)O)cc1)C(=O)O (stereo unspecified)	> 200	> 200	–
O=C(O)CSC1=NNC2(C(=O)N1)c1ccccc1-c1ccccc12	> 200	58.9	–
N=c1n(CC(=O)NC23CC4CC(CC(C4)C2)C3)c2ccccc2n1Cc1ccc(Cl)cc1	> 53.7	4.79	–
CCN1c2ccccc2-n2c(C)nnc2-c2c1n[nH]c2-c1ccccc1	> 200	28.2	–
CCCCCOCCCCCCCC(=O)O	> 200	89.1	–
CSc1nc(-c2ccccc2)c(C#N)c(=O)[nH]1	–	–	inactive
Cc1nsc2cc(Cl)n(C)c(=O)c12	> 6.76	> 6.76	–
c1ccc2c(c1)CCCc1cc3ccccc3nc1-2	> 55	> 55	–
COc1ccc(/C=C2\CN(C)Cc3c2nc(N)nc3-c2ccc(OC)cc2)cc1	> 18.6	> 18.6	–
CCOC(=O)c1ccc(NC(=O)O/N=C(/Cl)CC)cc1	–	–	inactive
CCn1c(SCC(=O)NNC(=S)Nc2ccc(Cl)cc2)nc2ccccc2c1=O	> 200	95.5	–
O=C(Nc1ccccc1C(=O)O)C(=O)C(C(=O)c1ccccc1-c1ccccc1)C1OC(=O)c2ccccc21 (stereo unspecified)	> 50.1	25.1	–
